From US7998965B2, “Glutamate aggrecanase inhibitors” (Wyeth LLC, priority 2005, dated 2011)
Read-outs that look alike come from different tables or passages of the source. Blank lines part the entries; values can stand above or below the molecule they belong to.

Experiments:
[1] = biological target: T1, purified recombinant human Aggrecanase-1 (rAgg1) (Homo sapiens, UniProt O75173); experiment: In vitro fluorescence screen for Aggrecanase-1 inhibitors; assay type: biochemical; details: for IC50: read-out: Agg1 IC50
T1 sequence (O75173 213-837): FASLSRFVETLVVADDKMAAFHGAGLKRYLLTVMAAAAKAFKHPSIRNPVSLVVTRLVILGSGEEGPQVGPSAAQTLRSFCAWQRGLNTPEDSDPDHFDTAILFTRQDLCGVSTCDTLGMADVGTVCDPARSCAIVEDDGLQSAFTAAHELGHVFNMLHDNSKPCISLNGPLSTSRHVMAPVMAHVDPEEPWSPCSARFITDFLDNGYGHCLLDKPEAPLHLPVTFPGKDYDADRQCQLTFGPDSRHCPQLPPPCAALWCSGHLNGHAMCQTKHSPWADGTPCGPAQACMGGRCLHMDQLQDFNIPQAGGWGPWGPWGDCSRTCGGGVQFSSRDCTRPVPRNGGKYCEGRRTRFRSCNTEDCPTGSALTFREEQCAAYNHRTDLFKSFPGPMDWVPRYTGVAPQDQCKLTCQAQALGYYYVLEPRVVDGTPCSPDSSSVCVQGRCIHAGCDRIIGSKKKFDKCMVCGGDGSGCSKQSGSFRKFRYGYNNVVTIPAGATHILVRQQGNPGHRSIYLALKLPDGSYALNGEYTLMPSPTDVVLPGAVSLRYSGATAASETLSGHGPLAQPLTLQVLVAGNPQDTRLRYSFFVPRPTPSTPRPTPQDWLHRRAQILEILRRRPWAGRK

[2] = biological target: T2, purified recombinant human Aggrecanase-2 (Ag2t-Phe628-Strep) (Homo sapiens, UniProt Q9UNA0); experiment: In vitro fluorescence screen for Aggrecanase-2 inhibitors; assay type: biochemical; details: for IC50: read-out: Agg 2 IC50
T2 construct: the form used is denoted as Ag2t-Phe628-Strep (MW=41,737)
T2 sequence (Q9UNA0 262-628): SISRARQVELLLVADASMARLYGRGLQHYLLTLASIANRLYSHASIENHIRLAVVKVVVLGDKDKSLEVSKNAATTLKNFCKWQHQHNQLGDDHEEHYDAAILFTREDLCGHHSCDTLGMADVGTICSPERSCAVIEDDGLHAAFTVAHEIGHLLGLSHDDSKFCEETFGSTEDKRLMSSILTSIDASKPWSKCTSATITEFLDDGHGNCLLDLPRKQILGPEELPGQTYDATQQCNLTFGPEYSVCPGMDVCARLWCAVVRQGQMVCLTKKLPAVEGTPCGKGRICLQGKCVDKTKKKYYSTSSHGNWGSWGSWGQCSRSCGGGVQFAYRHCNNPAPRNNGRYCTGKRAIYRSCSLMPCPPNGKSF

Agg1 IC50 (nM) ([1]; Table 1): no inh
SMILES: O=C(O)CC[C@H](NC(=O)c1ccc(-c2cccs2)o1)C(=O)NCc1ccccc1 [Example 21D, N^1-benzyl-N^2-(5-thien-2-yl-2-furoyl)-L-α-glutamine]

IC50 ([1]; Table 1): 1000 nM
SMILES: O=C(O)CC[C@H](NC(=O)c1ccc(-c2ccccc2)nc1)C(=O)NCc1ccccc1 [Example 22A, N^1-benzyl-N^2-[(6-phenylpyridin-3-yl)carbonyl]-L-α-glutamine]

IC50 ([1]; Table 1): 200 nM
SMILES: COc1cccc(CNC(=O)[C@H](CCC(=O)O)NC(=O)c2ccc(-c3ccccc3)nc2)c1 [Example 22B, N^1-(3-methoxybenzyl)-N^2-[(6-phenylpyridin-3-yl)carbonyl]-L-α-glutamine]

IC50 ([1]; Table 1): > 50000 nM
SMILES: COc1cccc(CNC(=O)[C@H](CCC(=O)O)NC(=O)c2ccc(-c3ccccc3C)c(C)c2)c1 [Example 22C, N^2-[(2,2′-dimethyl-1,1′-biphenyl-4-yl)carbonyl]-N^1-(3-methoxybenzyl)-L-α-glutamine]

IC50 ([1]; Table 1): > 6000 nM
SMILES: CC(=O)Nc1ccc(-c2ccc(C(=O)N[C@@H](CCC(=O)O)C(=O)NCc3ccccc3)cc2)cc1 [Example 23, N^2-{[4′-(acetylamino)-1,1′-biphenyl-4-yl]carbonyl}-N^1-benzyl-L-α-glutamine]

IC50 ([1]; Table 1): 1100 nM
SMILES: O=C(O)CC[C@H](NC(=O)c1ccc(-c2ccc(NC(=O)c3ccco3)cc2)cc1)C(=O)NCc1ccccc1 [Example 24A, N^1-benzyl-N^2-{[4′-(2-furoylamino)-1,1′-biphenyl-4-yl]carbonyl}-L-α-glutamine]

IC50 ([1]; Table 1): ~2200 nM
SMILES: O=C(O)CC[C@H](NC(=O)c1ccc(-c2ccc(NC(=O)c3ccc(F)cc3)cc2)cc1)C(=O)NCc1ccccc1 [Example 24B, N^1-benzyl-N^2-({4′-[(4-fluorobenzoyl)amino]1,1′-biphenyl-4-yl}carbonyl)-L-α-glutamine]

IC50 ([1]; Table 1): ~300 nM
SMILES: O=C(O)CC[C@H](NC(=O)c1ccc(-c2ccc(NC(=O)c3ccccc3)cc2)cc1)C(=O)NCc1ccccc1 [Example 24C, N^2-{[4′-(benzoylamino)-1,1′-biphenyl-4-yl]carbonyl}-N^1-benzyl-L-α-glutamine]

IC50 ([1]; Table 1): 5000 nM
SMILES: O=C(O)CC[C@H](NC(=O)c1ccc(-c2ccc(NC(=O)Cc3ccccc3)cc2)cc1)C(=O)O [Example 26, N-({4′-[(Phenylacetyl)amino]1,1′-biphenyl-4-yl}carbonyl)-L-α-glutamic acid]

IC50 ([1]; Table 1): 400 nM
SMILES: Cc1c(C(=O)Nc2ccc(-c3ccc(C(=O)N[C@@H](CCC(=O)O)C(=O)O)cc3)cc2)oc2ccccc12 [Example 27, N-[(4′-{[(3-Methyl-1-benzofuran-2-yl)carbonyl]-amino}-1,1′-biphenyl-4-yl)carbonyl]-L-α-glutamic acid]

IC50 ([1]; Table 1): 400 nM
SMILES: O=C(O)CC[C@H](NC(=O)c1ccc(-c2ccc(NC(=O)c3ccco3)cc2)cc1)C(=O)O [Example 28, N-{[4′-(2-furoylamino)-1,1′-biphenyl-4-yl]carbonyl}-L-α-glutamic acid]

IC50 ([1]; Table 1): 3000 nM
SMILES: CC(=O)Nc1ccc(-c2ccc(C(=O)N[C@@H](CCC(=O)O)C(=O)O)cc2)cc1 [Example 29, N-{[4′-(acetylamino)-1,1′-biphenyl-4-yl]carbonyl}-L-α-glutamic acid]

IC50 ([1]; Table 1): 500 nM
SMILES: O=C(O)CC[C@H](NC(=O)c1ccc(-c2ccc(NC(=O)c3ccccc3)cc2)cc1)C(=O)O [Example 30, N-{[4′-(benzoylamino)-1,1′-biphenyl-4-yl]carbonyl}-L-α-glutamic acid]

IC50 ([1]; Table 1): 1000 nM
SMILES: O=C(O)CC[C@H](NC(=O)c1ccc(-c2ccc(NC(=O)c3cc4ccccc4o3)cc2)cc1)C(=O)O [Example 31, N-({4′-[(1-benzofuran-2-ylcarbonyl)amino]-1,1′-biphenyl-4-yl}carbonyl)-L-α-glutamic acid]

IC50 ([1]; Table 1): < 30 nM
SMILES: Cc1ccc(CNC(=O)[C@H](CCC(=O)NO)NC(=O)c2ccc(-c3ccccc3)cc2)cc1C [Example 33B, N^2-(1,1′-biphenyl-4-ylcarbonyl)-N^1-(3,4-dimethylbenzyl)-N^5-hydroxy-L-α-glutamamide]

IC50 ([1]; Table 3): > 8300 nM
SMILES: CC(C)(Cc1ccccc1)NC(=O)[C@H](CCC(=O)O)NC(=O)c1cccc(-c2cccs2)c1 [N-(1,1-dimethyl-2-phenylethyl)-N^2-[3-(2-thienyl)benzoyl]-L-α-glutamine]

Second part, the molecule before the results:

SMILES: O=C(O)CC[C@H](NC(=O)c1ccc2c(c1)Cc1ccccc1-2)C(=O)NC12CC3CC(CC(C3)C1)C2 [Example 8AAAAA, N^1-1-adamantyl-N^2-(9H-fluoren-2-ylcarbonyl)-L-α-glutamine]
IC50 ([1]; Table 2): 372 nM
IC50 ([2]; Table 2): 410 nM

SMILES: O=C(O)CC[C@H](NC(=O)c1ccc(-c2ccccc2)cc1)C(=O)NCC12CC3CC(CC(C3)C1)C2 [Example 8AAAAAA, N-(1-adamantylmethyl)-N^2-(biphenyl-4-ylcarbonyl)-L-α-glutamine]
IC50 ([1]; Table 2): 534 nM
IC50 ([2]; Table 2): 1760 nM

SMILES: CC(C)(Cc1ccc(Cl)cc1)NC(=O)[C@H](CCC(=O)O)NC(=O)c1ccc(-c2ccc(F)cc2F)cc1 [Example 8AAAAAAA, N-[2-(4-chlorophenyl)-1,1-dimethylethyl]-N^2-[(2′,4′-difluorobiphenyl-4-yl)carbonyl]-L-α-glutamine]
IC50 ([1]; Table 3): 80 nM
IC50 ([2]; Table 3): 550 nM

SMILES: O=C(O)CC[C@H](NC(=O)C1c2ccccc2-c2ccccc21)C(=O)NC12CC3CC(CC(C3)C1)C2 [Example 8BBBBB, N^1-1-adamantyl-N^2-(9H-fluoren-9-ylcarbonyl)-L-α-glutamine]
IC50 ([1]; Table 2): > 17000 nM
IC50 ([2]; Table 2): 20900 nM

SMILES: O=C(O)CC[C@H](NC(=O)c1ccc2c(c1)Cc1ccccc1-2)C(=O)N[C@H](CO)Cc1ccccc1 [Example 8BBBBBB, N-[(1S)-1-benzyl-2-hydroxyethyl]-N^2-(9H-fluoren-2-ylcarbonyl)-L-α-glutamine]
IC50 ([1]; Table 2): 470 nM
IC50 ([2]; Table 2): 2670 nM

SMILES: CC(C)(Cc1ccc(Cl)cc1)NC(=O)[C@H](CCC(=O)O)NC(=O)c1ccc(-c2cc(F)ccc2F)cc1 [Example 8BBBBBBB, N-[2-(4-chlorophenyl)-1,1-dimethylethyl]-N^2-[(2′,5′-difluorobiphenyl-4-yl)carbonyl]-L-α-glutamine]
IC50 ([1]; Table 3): 110 nM
IC50 ([2]; Table 3): 1000 nM

SMILES: CC(C)(Cc1ccc(F)cc1)NC(=O)[C@H](CCC(=O)O)NC(=O)c1ccc(-c2ccc3c(c2)OCC3)cc1 [Example 8BBBBBBBB, N^2-[4-(2,3-dihydro-1-benzofuran-6-yl)benzoyl]-N-[2-(4-fluorophenyl)-1,1-dimethylethyl]-L-α-glutamine]
IC50 ([1]; Table 3): 300 nM
IC50 ([2]; Table 3): 200 to 600 nM

SMILES: CC(C)(Cc1ccc(F)cc1)NC(=O)[C@H](CCC(=O)O)NC(=O)c1ccc(-c2cccs2)s1 [Example 8BBBBBBBBB, N^2-(2,2′-bithien-5-ylcarbonyl)-N-[2-(4-fluorophenyl)-1,1-dimethylethyl]-L-α-glutamine]
IC50 ([1]; Table 3): < 30 nM
Ki ([1]; Table 3, read-out: Ki Agg1): 11.5 nM
IC50 ([2]; Table 3): 100 to 300 nM
Ki ([2]; Table 3, read-out: Ki Agg2): 681 nM

SMILES: CC(C)(Cc1ccccc1)NC(=O)[C@H](CCC(=O)O)NC(=O)c1sccc1-c1ccccc1 [Example 8BBBBBBBBBB, N-(1,1-dimethyl-2-phenylethyl)-N^2-[(3-phenyl-2-thienyl)carbonyl]-L-α-glutamine]
IC50 ([1]; Table 3): 22000 nM
IC50 ([2]; Table 3): > 200000 nM

SMILES: CN(CCc1ccccc1)C(=O)[C@H](CCC(=O)O)NC(=O)c1ccc(-c2ccccc2)cc1 [Example 8CCCCCC, N^2-(biphenyl-4-ylcarbonyl)-N-methyl-N-(2-phenylethyl)-L-α-glutamine]
IC50 ([1]; Table 2): 2400 nM
IC50 ([2]; Table 2): > 22000 nM

SMILES: CC(C)(Cc1ccc(Cl)cc1)NC(=O)[C@H](CCC(=O)O)NC(=O)c1ccc(-c2c(F)cccc2F)cc1 [Example 8CCCCCCC, N-[2-(4-chlorophenyl)-1,1-dimethylethyl]-N^2-[(2′,6′-difluorobiphenyl-4-yl)carbonyl]-L-α-glutamine]
IC50 ([1]; Table 3): 50 nM
IC50 ([2]; Table 3): 680 nM

SMILES: O=C(O)CC[C@H](NC(=O)c1ccc(-c2ccccc2)o1)C(=O)NCc1ccccc1 [Example 20, N^1-benzyl-N^2-(5-phenyl-2-furoyl)-L-α-glutamine]
IC50 ([1]; Table 1): ~22000 nM

SMILES: CCOc1cccc(-c2ccc(C(=O)N[C@@H](CCC(=O)O)C(=O)NCc3ccccc3)o2)c1 [Example 21A, N^1-benzyl-N^2-[5-(3-ethoxyphenyl)-2-furoyl]-L-α-glutamine]
IC50 ([1]; Table 1): 2500 to 7500 nM

SMILES: Cc1cc(C)cc(-c2ccc(C(=O)N[C@@H](CCC(=O)O)C(=O)NCc3ccccc3)o2)c1 [Example 21B, N^1-benzyl-N^2-[5-(3,5-dimethylphenyl)-2-furoyl]-L-α-glutamine]
IC50 ([1]; Table 1): ~6700 nM

SMILES: O=C(O)CC[C@H](NC(=O)c1ccc(-c2ccco2)o1)C(=O)NCc1ccccc1 [Example 21C, N^1-benzyl-N^2-(2,2′-bifuran-5-ylcarbonyl)-L-α-glutamine]
Agg1 IC50 (nM) ([1]; Table 1): no inh
